Test results published in patent US20230212222A1 (ANYGEN CO., LTD., priority 2020, published 2023).
Square brackets hold non-standard residues; d marks the D form. Peptide text beside a SMILES is read from it. * marks the point of attachment. His(Trt) = N[C@@H](Cc1cn(C(c2ccccc2)(c2ccccc2)c2ccccc2)cn1)C(=O)O; dPhe(4-Br) = N[C@H](Cc1ccc(Br)cc1)C(=O)O; dPhe(4-F) = N[C@H](Cc1ccc(F)cc1)C(=O)O; Palmitoyl = CCCCCCCCCCCCCCCC(=O)*; Lauroyl = CCCCCCCCCCCC(=O)*; Octanoyl = CCCCCCCC(=O)*

The molecules below were run against T1, GPR39 (Homo sapiens, UniProt O43194).
T1 sequence (O43194 1-453): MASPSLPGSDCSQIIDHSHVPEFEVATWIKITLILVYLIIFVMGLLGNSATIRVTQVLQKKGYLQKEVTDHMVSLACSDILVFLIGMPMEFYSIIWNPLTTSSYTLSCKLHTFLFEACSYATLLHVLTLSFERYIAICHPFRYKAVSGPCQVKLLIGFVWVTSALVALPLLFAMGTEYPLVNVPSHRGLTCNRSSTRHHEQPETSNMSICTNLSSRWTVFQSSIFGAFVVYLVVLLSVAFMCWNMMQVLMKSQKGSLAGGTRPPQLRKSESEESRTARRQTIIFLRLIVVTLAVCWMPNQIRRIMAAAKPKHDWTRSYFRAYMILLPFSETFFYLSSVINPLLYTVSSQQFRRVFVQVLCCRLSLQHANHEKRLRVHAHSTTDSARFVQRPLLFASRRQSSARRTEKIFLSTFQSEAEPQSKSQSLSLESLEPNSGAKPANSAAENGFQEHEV
Experimental: Specifically, the fibroblast cell line CV-1 (1×10^5 cells/ml, Korea Cell Line Bank) was cultured in a 96 well cell culture plate for 24 hours, and then treated with GPR39 inserted into adenovirus and SRE (serum response element) luciferase at 50 MOI (multiplicity of infection) and 25 MOI virus for 3 hours, respectively, and then cultured for 24 hours.

| ECmax (-fold induction over basal) | SMILES |
| --- | --- |
| 18 ± 1.7 -fold induction over basal | CCCCCCCC(=O)NCCCC[C@H](NC(=O)[C@@H](N)Cc1cn(CCc2ccccc2)cn1)C(=O)N[C@@H](Cc1ccccc1)C(=O)N[C@@H](Cc1ccc(O)cc1)C(=O)O [HKFY-19, N6-octanoyl-N2-(Nt-phenethyl-L-histidyl)-L-lysyl-L-phenylalanyl-L-tyrosine] |
| 20.26 ± 2.7 -fold induction over basal | CCCCCCCC(=O)NCCCC[C@H](NC(=O)[C@@H](N)Cc1cn(C(c2ccccc2)c2ccc(OC)cc2)cn1)C(=O)N[C@@H](Cc1ccccc1)C(=O)N[C@@H](Cc1ccc(O)cc1)C(=O)O (stereo partly drawn) [HKFY-20, N2-(Nt-((4-methoxyphenyl)(phenyl)methyl)-L-histidyl)-N6-octanoyl-L-lysyl-L-phenylalanyl-L-tyrosine] |
| 18.3 ± 2.5 -fold induction over basal | CCCCCCCC(=O)NCCCC[C@H](NC(=O)[C@@H](N)Cc1cn([C@H](c2ccccc2)c2ccc(Cl)cc2)cn1)C(=O)N[C@@H](Cc1ccccc1)C(=O)N[C@@H](Cc1ccc(O)cc1)C(=O)O [HKFY-21, N2-(Nt-((R)-(4-chlorophenyl)(phenyl)methyl)-L-histidyl)-N6-octanoyl-L-lysyl-L-phenylalanyl-L-tyrosine] |
| 21.3 ± 1.8 -fold induction over basal | CCCCCCCC(=O)NCCCC[C@H](NC(=O)[C@@H](N)Cc1cn([C@H](c2ccccc2)c2ccc(C)cc2)cn1)C(=O)N[C@@H](Cc1ccccc1)C(=O)N[C@@H](Cc1ccc(O)cc1)C(=O)O [HKFY-22, N6-octanoyl-N2-(Nt-((R)-phenyl(p-tolyl)methyl)-L-histidyl)-L-lysyl-L-phenylalanyl-L-tyrosine] |
| 15 ± 1.37 -fold induction over basal | CCCCCCCC(=O)NCCCC[C@H](NC(=O)[C@@H](N)Cc1cn(C23CC4CC(CC(C4)C2)C3)cn1)C(=O)N[C@@H](Cc1ccccc1)C(=O)N[C@@H](Cc1ccc(O)cc1)C(=O)O [HKFY-23, N2-(Nt-(adamantan-1-yl)-L-histidyl)-N6-octanoyl-L-lysyl-L-phenylalanyl-L-tyrosine] |
| 7.72 ± 0.57 -fold induction over basal | CCCCCCCCCCCC(=O)NCCCC[C@H](NC(=O)[C@@H](N)Cc1cn(C(c2ccccc2)(c2ccccc2)c2ccccc2)cn1)C(=O)N[C@@H](Cc1ccccc1)C(=O)N[C@@H](Cc1ccc(O)cc1)C(=O)O [HKFY-25, N6-dodecanoyl-N2-(Nt-trityl-L-histidyl)-L-lysyl-L-phenylalanyl-L-tyrosine] (H-[His(Trt)]K(Lauroyl)FY-OH) |
| 20.4 ± 0.57 -fold induction over basal | CCCCCCCCCCCCCCCC(=O)NCCCC[C@H](NC(=O)[C@@H](N)Cc1cn(C(c2ccccc2)(c2ccccc2)c2ccccc2)cn1)C(=O)N[C@@H](Cc1ccccc1)C(=O)N[C@@H](Cc1ccc(O)cc1)C(=O)O [HKFY-27, N6-palmitoyl-N2-(Nt-trityl-L-histidyl)-L-lysyl-L-phenylalanyl-L-tyrosine] (H-[His(Trt)]K(Palmitoyl)FY-OH) |
| 22.95 ± 2.58 -fold induction over basal | CCCCCCCC(=O)NCCCC[C@H](NC(=O)[C@@H](N)Cc1cn(C(c2ccccc2)(c2ccccc2)c2ccccc2)cn1)C(=O)N[C@H](Cc1ccc(F)cc1)C(=O)N[C@@H](Cc1ccc(O)cc1)C(=O)O [HKFY-28, ((R)-2-((S)-2-((S)-2-amino-3-(1-trityl-1H-imidazol-4-yl)propanamido)-6-octanamidohexanamido)-3-(4-fluorophenyl)propanoyl)-L-tyrosine] (H-[His(Trt)]K(Octanoyl)[dPhe(4-F)]Y-OH) |
| 26.8 ± 1.87 -fold induction over basal | CCCCCCCC(=O)NCCCC[C@H](NC(=O)[C@@H](N)Cc1cn(C(c2ccccc2)(c2ccccc2)c2ccccc2)cn1)C(=O)N[C@H](Cc1ccc(Br)cc1)C(=O)N[C@@H](Cc1ccc(O)cc1)C(=O)O [HKFY-29, ((R)-2-((S)-2-((S)-2-amino-3-(1-trityl-1H-imidazol-4-yl)propanamido)-6-octanamidohexanamido)-3-(4-bromophenyl)propanoyl)-L-tyrosine] (H-[His(Trt)]K(Octanoyl)[dPhe(4-Br)]Y-OH) |
